Reference: patent US9278958B2, “Anti-cancer compounds” (KATHOLIEKE UNIVERSITEIT LEUVEN, priority 2012, dated 2016)
Like-named read-outs stand apart in the source and are kept apart here.

Tests used:
HUT-78 cells = assay: Cytostatic assay, HUT-78; format: cell-based; settings: Homo sapiens, HuT78; Table 2
Experimental: (§1) To each well of a 96-well microtiter plate were added 5-7.5×10^4 cells and a given amount of the test compound. The cells were allowed to proliferate for 48 h to 96 h (depending on the nature of the cell line) at 37° C. in a humidified CO2-controlled atmosphere. At the end of the incubation period, the cells were counted in a Coulter Counter (Coulter Electronics Ltd, Harpenden Herts, United Kingdom).

[1] = tested on: HeLa cervix carcinoma cells; assay: Cytostatic assay, HeLa; format: cell-based, human; settings: Homo sapiens; Table 3; read-out: Cytostatic activity (μM) Hela
Method in brief: (§2)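 Cells (5-7.5×10^4/well) + test compound; growth 48–96 h (line-dependent), 37° C, humidified CO2 atmosphere; endpoint Coulter count.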

[2] = tested on: HL60, human leukemia cells; assay: Cytostatic assay, HL-60; format: cell-based; settings: Table 2
Experimental: as §1

[3] = tested on: Caki-2 kidney carcinoma cells; assay: Cytostatic assay, Caki-2; format: cell-based; settings: Homo sapiens, Table 3
Experimental: as §1

[4] = tested on: HT29 colorectal carcinoma cells; assay: Cytostatic assay, HT29; format: cell-based; settings: Homo sapiens, HT-29; Table 3
Experimental: as §1

PLC/PRF/5 hepatoma cells = assay: Cytostatic assay, PLC/PRF/5; format: cell-based; settings: Homo sapiens, Table 4
Experimental: as §1

BPH-1 (UZ) = assay: Cytostatic assay, BPH-1 (UZ); format: cell-based; settings: Homo sapiens, Table 4
Experimental: as §1

[5] = tested on: PC-3 (UZ) prostate cancer cells; assay: Cytostatic assay, PC-3 (UZ); format: cell-based; settings: Table 4
Experimental: as §1

[6] = tested on: Raji, human B-lymphoma cells; assay: Cytostatic assay, Raji; format: cell-based; settings: Table 2
Experimental: as §1

[7] = tested on: DNA synthesis in CEM cells; assay: Antimetabolic activity assay, [CH3-3H]dThd incorporation (DNA synthesis), CEM; format: cell-based; settings: Homo sapiens, CCRF-CEM, incorporation into TCA-insoluble material
Experimental: (§3) Radiolabeled precursors of DNA synthesis ([^3H-methyl]dThd), RNA synthesis ([5-^3H]Urd), and protein synthesis ([4,5-^3H]leu) were added to 10^5 CEM cell cultures in the 200 μl-wells of a microtiter plate at 1 μCi for each precursor in the presence of varying concentrations of the test compounds (5-fold dilution series). The cells were allowed to proliferate for 20 hrs at 37° C. in a humidified, CO2-controlled atmosphere. At the end of the incubation period, the contents of the wells were brought onto 25-mm glass fiber filters and further processed for measurement of acid-insoluble radioactivity.

[8] = tested on: BAEC aortic endothelial cells; assay: Cytostatic assay, BAEC; format: cell-based, bovine; settings: Bos taurus, Table 3
Experimental: as §1

[9] = tested on: protein synthesis in Raji cells; assay: Antimetabolic activity assay, [4,5-3H]leucine incorporation (protein synthesis), Raji; format: cell-based; settings: Homo sapiens, incorporation into TCA-insoluble material
Experimental: [The procedure below names another cell line; the source lists this cell line under the same test.] as §3

[10] = tested on: DU145 (UZ) prostate cancer cells; assay: Cytostatic assay, DU145 (UZ); format: cell-based; settings: Homo sapiens, DU-145; Table 4
Experimental: as §1

[11] = tested on: MCF-7 mammary carcinoma cells; assay: Cytostatic assay, MCF-7; format: cell-based; settings: Homo sapiens, MCF7; Table 3
Experimental: as §1

[12] = tested on: protein synthesis in CEM cells; assay: Antimetabolic activity assay, [4,5-3H]leucine incorporation (protein synthesis), CEM; format: cell-based; settings: Homo sapiens, CCRF-CEM, incorporation into TCA-insoluble material
Experimental: as §3

Sup T1 cells = assay: Cytostatic assay, Sup T1; format: cell-based; settings: Homo sapiens, Table 2, read-out: Cytostatic activity (μM) Sup T 1
Experimental: as §1

U87 glioma cells = assay: Cytostatic assay, U87; format: cell-based; settings: Homo sapiens, U-87 MG; Table 3
Experimental: as §1

[13] = tested on: OST TK- osteosarcoma cells; assay: Cytostatic assay, OST TK-; format: cell-based; settings: Homo sapiens; Table 3
Experimental: as §1

[14] = tested on: 293T embryonic kidney cells; assay: Cytostatic assay, 293T; format: cell-based; settings: Homo sapiens, HEK-293T; Table 3
Experimental: as §1

[15] = tested on: DNA synthesis in Raji cells; assay: Antimetabolic activity assay, [CH3-3H]dThd incorporation (DNA synthesis), Raji; format: cell-based; settings: Homo sapiens, incorporation into TCA-insoluble material
Experimental: [The procedure below names another cell line; the source lists this cell line under the same test.] as §3

[16] = tested on: RNA synthesis in CEM cells; assay: Antimetabolic activity assay, [5-3H]uridine incorporation (RNA synthesis), CEM; format: cell-based; settings: Homo sapiens, CCRF-CEM, incorporation into TCA-insoluble material
Experimental: as §3

MT-2 cells = assay: Cytostatic assay, MT-2; format: cell-based; settings: Homo sapiens, MT2; Table 2
Experimental: as §1

[17] = tested on: Caki-1 kidney carcinoma cells; assay: Cytostatic assay, Caki-1; format: cell-based; settings: Homo sapiens, Table 3
Experimental: as §1

Huh-7 hepatoma cells = assay: Cytostatic assay, Huh-7; format: cell-based; settings: Homo sapiens, Table 4
Experimental: as §1

MT-4 cells = assay: Cytostatic assay, MT-4; format: cell-based; settings: Homo sapiens, MT4; Table 2
Experimental: as §1

[18] = tested on: PC3 (rega) prostate cancer cells; assay: Cytostatic assay, PC3 (rega); format: cell-based; settings: Table 4
Experimental: as §1

[19] = tested on: 22Rv1 (UZ) prostate cancer cells; assay: Cytostatic assay, 22Rv1 (UZ); format: cell-based; settings: Homo sapiens, Table 4
Experimental: as §1

[20] = tested on: PNT1A (UZ) prostate cells; assay: Cytostatic assay, PNT1A (UZ); format: cell-based; settings: Homo sapiens, Table 4
Experimental: as §1

[21] = tested on: FM3A mammary carcinoma cells; assay: Cytostatic assay, FM3A; format: cell-based, murine; settings: Mus musculus, Table 3
Experimental: as §1

[22] = tested on: U937, human monocytic cells; assay: Cytostatic assay, U937; format: cell-based; settings: U-937, Table 2
Experimental: as §1

[23] = tested on: HEL embryonic lung fibroblast cells; assay: Cytostatic assay, HEL; format: cell-based; settings: Homo sapiens, Table 3
Experimental: as §1

[24] = tested on: RNA synthesis in Raji cells; assay: Antimetabolic activity assay, [5-3H]uridine incorporation (RNA synthesis), Raji; format: cell-based; settings: Homo sapiens, incorporation into TCA-insoluble material
Experimental: [The procedure below names another cell line; the source lists this cell line under the same test.] as §3

Molt4/C8 cells = assay: Cytostatic assay, Molt4/C8; format: cell-based; settings: Table 2
Experimental: as §1

C8166 cells = assay: Cytostatic assay, C8166; format: cell-based; settings: Homo sapiens, Table 2
Experimental: as §1

[25] = tested on: LNCaP (UZ) prostate cancer cells; assay: Cytostatic assay, LNCaP (UZ); format: cell-based; settings: Homo sapiens, Table 4
Experimental: as §1

[26] = tested on: THP-1, human monocytic cells; assay: Cytostatic assay, THP-1; format: cell-based; settings: Table 2
Experimental: as §1

HepG2C3A hepatoma cells = assay: Cytostatic assay, HepG2C3A; format: cell-based; settings: Homo sapiens, HepG2/C3A; Table 4
Experimental: as §1

CEM cells = assay: Cytostatic assay, CEM; format: cell-based; settings: Homo sapiens, CCRF-CEM
Method in brief: as §2

L1210 cells = assay: Cytostatic assay, L1210; format: cell-based; settings: Mus musculus, Table 2
Experimental: as §1

[27] = Table 1a, read-out: IC50 μM (CEM)
[28] = Table 2, read-out: Cytostatic activity (μM) CEM

Row | SMILES | IC50 (HUT-78 cells) [µM] | IC50 [1] [µM] | IC50 [2] [µM] | IC50 [3] [µM] | IC50 [4] [µM] | IC50 (PLC/PRF/5 hepatoma cells) [µM] | IC50 (BPH-1 (UZ)) [µM] | IC50 [5] [µM] | IC50 [6] [µM] | IC50 [7] [µM] | IC50 [8] [µM] | IC50 [9] [µM] | IC50 [10] [µM] | IC50 [11] [µM] | IC50 [12] [µM] | IC50 (Sup T1 cells) [µM] | IC50 (U87 glioma cells) [µM] | IC50 [13] [µM] | IC50 [14] [µM] | IC50 [15] [µM] | other results
1 | COC(=O)c1cc(CCc2cc(OC)ccc2OC)sc1N [TR584, 2-Amino-5-[2-(2,5-dimethoxy-phenyl)-ethyl]-thiophene-3-carboxylic acid methyl ester] | 2.6 ± 2.1 | 0.83 ± 0.25 | 0.89 ± 0.3 | 0.93 ± 0.28 | 1.8 ± 0.21 | 1.3 ± 0.21 | 1.3 ± 0.071 | 0.81 ± 0.42 | 2.2 ± 0.28 | 7.5 ± 5.5 | 2 ± 0.28 | 62 ± 1 | 1.6 | 0.93 ± 0.23 | 1.1 ± 0.5 | 0.61 ± 0.26 | 1.8 ± 0.071 | 0.68 ± 0.33 | 1.9 | 82 ± 6 | IC50 [16]: 2.4 ± 0.2 µM; IC50 (MT-2 cells): 4.2 ± 0.79 µM; IC50 [17]: 2.5 ± 0.6 µM; IC50 (Huh-7 hepatoma cells): 2.2 ± 0.49 µM; IC50 (MT-4 cells): 1.6 ± 0.21 µM; IC50 [18]: 0.36 ± 0.18 µM; IC50 [19]: 0.31 ± 0.087 µM; IC50 [20]: 0.77 ± 0.31 µM; IC50 [21]: 2.5 ± 0.28 µM; IC50 [22]: 4.2 ± 0.07 µM; IC50 [23]: 0.87 ± 0.014 µM; IC50 [24]: ≥ 100 µM; IC50 (Molt4/C8 cells): 0.42 ± 0.11 µM; IC50 (C8166 cells): 1.4 ± 0.76 µM; IC50 [25]: 0.38 ± 0.11 µM; IC50 [26]: 3.1 ± 0.07 µM; IC50 (HepG2C3A hepatoma cells): 4.5 ± 1.7 µM; IC50 (CEM cells; [27]): 1.6 µM; IC50 (CEM cells; [28]): 1.6 ± 0.071 µM
2 | COc1ccccc1CCc1cc(C#N)c(N)s1 [TR585, 2-Amino-5-[2-(2-methoxy-phenyl)-ethyl]-thiophene-3-carbonitrile] | 7.1 ± 1.3 | 8.3 ± 1.5 | 3.5 ± 0.57 | 4.8 ± 4.5 | 8.9 ± 0.92 | 6.7 ± 0.64 | 7 ± 0.42 | 2.6 ± 0.64 | 13 ± 3.5 | > 100 | 9.7 ± 1.8 | ≥ 100 | 6.4 ± 1.8 | 5.42 ± 0.69 | 11 ± 8 | 4.7 ± 0.38 | 10 ± 0.78 | 3.96 ± 1.56 | 10 ± 0.071 | ≥ 100 | IC50 (L1210 cells): 15 ± 4 µM; IC50 [16]: ≥ 100 µM; IC50 (MT-2 cells): 4.75 ± 0.08 µM; IC50 [17]: 4.6 ± 1.3 µM; IC50 (Huh-7 hepatoma cells): 8.3 ± 0.78 µM; IC50 (MT-4 cells): 8.1 ± 0.78 µM; IC50 [18]: 1.7 ± 0.35 µM; IC50 [19]: 9.4 ± 5.8 µM; IC50 [20]: 8 ± 0.42 µM; IC50 [21]: 25 ± 0.71 µM; IC50 [22]: 3.4 ± 2.8 µM; IC50 [23]: 7.2 ± 0.49 µM; IC50 [24]: ≥ 100 µM; IC50 (Molt4/C8 cells): 2 ± 0.2 µM; IC50 (C8166 cells): 16 ± 6.5 µM; IC50 [25]: 2.7 ± 0.95 µM; IC50 [26]: 3.8 ± 0.6 µM; IC50 (HepG2C3A hepatoma cells): 7.2 ± 4 µM; IC50 (CEM cells; [27]): 8.3 µM; IC50 (CEM cells; [28]): 8.3 ± 2.4 µM
